Among the data in patent publication US20240287138A1, “CYCLIC PEPTIDES FOR INHIBITING TNF RECEPTOR 1 ACTIVITY” (Merck Sharp & Dohme LLC, priority 2023, published 2024) are IC50 values, retold here.

Numbered stars: 1 amine (or outer) side, 2 acyl side, 3 side chain; on linkers, the order of the positions; unused ones are H or OH. Bridge positions count the residues as written; N and C are the ends. Square brackets hold non-standard residues; d marks the D form. Peptide text beside a SMILES is read from it. * marks the point of attachment. Trp(βS-Me,7-OMe) = COc1cccc2c([C@H](C)[C@H](N)C(=O)O)c[nH]c12; X24 = O=C(O)c1ccc([C@@H](O)[C@H](N[*:1])C(=O)[*:2])cc1; Morpholine(3S-CO,6,6-Me2) = CC1(C)CN[C@H](C(=O)O)CO1; Trp(7-CN) = N#Cc1cccc2c(C[C@H](N)C(=O)O)c[nH]c12; Trp(7-Cl) = N[C@@H](Cc1c[nH]c2c(Cl)cccc12)C(=O)O; Phe(4-CONH2) = NC(=O)c1ccc(C[C@H](N)C(=O)O)cc1; Phe(4-COOH) = N[C@@H](Cc1ccc(C(=O)O)cc1)C(=O)O; 4Pal(3S-Me) = C[C@@H](c1ccncc1)[C@H](N)C(=O)O; Trp(7-aza) = N[C@@H](Cc1c[nH]c2ncccc12)C(=O)O; Pip(5R-OH) = O=C(O)[C@@H]1CC[C@@H](O)CN1; X1 = O=C([C@@H]1CC[C@H](N[*:1])C1)[*:2]; Pip(4-aza) = O=C(O)[C@@H]1CNCCN1; 4Pal = N[C@@H](Cc1ccncc1)C(=O)O; NMeE = CN[C@@H](CCC(=O)O)C(=O)O; dHyp = O=C(O)[C@H]1C[C@H](O)CN1; aThr = C[C@H](O)[C@H](N)C(=O)O; Ahp(2) = CCCCC[C@H](N)C(=O)O; αMeS = C[C@](N)(CO)C(=O)O; Carboxymethyl = O=C(O)C*; Nle = CCCC[C@H](N)C(=O)O; Sar = CNCC(=O)O

The term IC50 denotes the midpoint of a concentration-inhibition curve.

This experiment addresses T1, TNFα-induced NF-κB signal transduction pathway (TNFR1 signaling) in THP-1 cells (Homo sapiens, UniProt P19438).
T1 sequence (P19438 30-455): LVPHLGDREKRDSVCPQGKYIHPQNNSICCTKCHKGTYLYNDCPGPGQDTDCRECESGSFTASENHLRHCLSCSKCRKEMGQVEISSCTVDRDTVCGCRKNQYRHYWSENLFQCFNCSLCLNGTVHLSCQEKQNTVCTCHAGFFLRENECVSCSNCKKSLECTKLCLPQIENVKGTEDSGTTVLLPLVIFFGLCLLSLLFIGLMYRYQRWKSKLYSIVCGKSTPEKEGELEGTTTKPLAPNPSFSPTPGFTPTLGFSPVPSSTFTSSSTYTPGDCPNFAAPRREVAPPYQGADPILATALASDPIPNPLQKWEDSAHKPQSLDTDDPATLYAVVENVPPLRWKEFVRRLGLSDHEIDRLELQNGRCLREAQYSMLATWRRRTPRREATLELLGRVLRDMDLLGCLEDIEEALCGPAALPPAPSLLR
The experiment is described as follows: THP-1 Lucia NF-κB reporter cell assay, inhibition of TNFα-induced NF-κB signaling. The format is cell-based. The following applies: THP-1 NF-κB Lucia reporter cells, 10 ng/mL TNFα, 16-18 h, secreted luciferase; read-out: THP-1 IC50. The essentials:
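THP-1 Lucia NF-κB cells, 20k/well, no selection antibiotics; peptide pre-inc 1 h 37 °C; + recombinant human TNFα 10 ng/mL final; o.n.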
As to `CCCC[C@@H]1NC(=O)CSC[C@@H](C(N)=O)NC(=O)[C@H]([C@@H](C)c2c[nH]c3c(OC)cccc23)NC(=O)CN(C)C(=O)[C@H](Cc2ccc(O)cc2)NC(=O)[C@H](Cc2ccc(C(=O)O)cc2)NC(=O)[C@](C)(CO)NC(=O)[C@H](Cc2c[nH]c3c(Cl)cccc23)NC(=O)[C@H](Cc2ccc(OCC(=O)O)cc2)NC(=O)[C@H](CC(N)=O)NC(=O)[C@H](CCC(=O)O)N(C)C(=O)[C@H](Cc2c[nH]c3ccccc23)NC(=O)[C@@H]2COC(C)(C)CN2C(=O)[C@H](Cc2ccncc2)NC1=O` [SEQ ID NO. 179] ({CH2CO}-[Nle][4Pal][Morpholine(3S-CO,6,6-Me2)]W[NMeE]NY(Carboxymethyl)[Trp(7-Cl)][αMeS][Phe(4-COOH)]Y[Sar][Trp(βS-Me,7-OMe)]C-NH2; thioether N-14), the IC50 was determined as 2.4 nM. Next, `CCCC[C@@H]1NC(=O)CSC[C@@H](C(N)=O)NC(=O)[C@H]([C@@H](C)c2c[nH]c3c(OC)cccc23)NC(=O)CN(C)C(=O)[C@H](Cc2ccc(O)cc2)NC(=O)[C@H](Cc2ccc(C(=O)O)cc2)NC(=O)[C@](C)(CO)NC(=O)[C@H](Cc2c[nH]c3c(Cl)cccc23)NC(=O)[C@H](Cc2ccncc2)NC(=O)[C@H](CC(N)=O)NC(=O)[C@H](CCC(=O)O)N(C)C(=O)[C@H](Cc2c[nH]c3ncccc23)NC(=O)[C@H](CO)NC(=O)[C@H]([C@@H](C)c2ccncc2)NC1=O` [SEQ ID NO. 180] ({CH2CO}-[Nle][4Pal(3S-Me)]S[Trp(7-aza)][NMeE]N[4Pal][Trp(7-Cl)][αMeS][Phe(4-COOH)]Y[Sar][Trp(βS-Me,7-OMe)]C-NH2; thioether N-14): 2 nM; `CCCC[C@@H]1NC(=O)[C@@H]2CC[C@@H](C2)NC(=O)[C@H]([C@@H](C)c2c[nH]c3c(OC)cccc23)NC(=O)CN(C)C(=O)[C@H](Cc2ccc(C(=O)O)cc2)NC(=O)[C@H](Cc2ccc(C(N)=O)cc2)NC(=O)[C@](C)(CO)NC(=O)[C@H](Cc2c[nH]c3c(Cl)cccc23)NC(=O)[C@H](Cc2ccncc2)NC(=O)[C@H]([C@H](C)O)NC(=O)[C@H]2C[C@H](O)CN2C(=O)[C@H](Cc2c[nH]c3ccccc23)NC(=O)[C@@H]2CC[C@@H](O)CN2C(=O)[C@H](Cc2ccncc2)NC1=O` [SEQ ID NO. 187] (cyclo([4Pal][Trp(7-Cl)][αMeS][Phe(4-CONH2)][Phe(4-COOH)][Sar][Trp(βS-Me,7-OMe)][X1][Nle][4Pal][Pip(5R-OH)]W[dHyp][aThr])): 0.5 nM.

Consider `CCCC[C@@H]1NC(=O)[C@@H]2CC[C@@H](C2)NC(=O)[C@H]([C@@H](C)c2c[nH]c3c(OC)cccc23)NC(=O)CN(C)C(=O)[C@H]([C@H](O)c2ccc(C(=O)O)cc2)NC(=O)[C@H](Cc2ccc(C(N)=O)cc2)NC(=O)[C@](C)(CO)NC(=O)[C@H](Cc2c[nH]c3c(Cl)cccc23)NC(=O)[C@H](Cc2ccncc2)NC(=O)[C@H](CC(N)=O)NC(=O)[C@H]2C[C@H](O)CN2C(=O)[C@H](Cc2c[nH]c3ccccc23)NC(=O)[C@@H]2CC[C@@H](O)CN2C(=O)[C@H](Cc2ccncc2)NC1=O` [SEQ ID NO. 188] (cyclo([4Pal][Trp(7-Cl)][αMeS][Phe(4-CONH2)][X24][Sar][Trp(βS-Me,7-OMe)][X1][Nle][4Pal][Pip(5R-OH)]W[dHyp]N)), for which the IC50 was found to be 0.8 nM.

Regarding `CCCC[C@@H]1NC(=O)[C@@H]2CC[C@@H](C2)NC(=O)[C@H]([C@@H](C)c2c[nH]c3c(OC)cccc23)NC(=O)CN(C)C(=O)[C@H](Cc2ccc(C(N)=O)cc2)NC(=O)[C@H](Cc2ccc(C(N)=O)cc2)NC(=O)[C@](C)(CO)NC(=O)[C@H](Cc2c[nH]c3c(Cl)cccc23)NC(=O)[C@H](Cc2ccncc2)NC(=O)[C@H](CC(N)=O)NC(=O)[C@H](CCC(=O)O)N(C)C(=O)[C@H](Cc2c[nH]c3ncccc23)NC(=O)[C@@H]2CC[C@@H](O)CN2C(=O)[C@H](Cc2ccncc2)NC1=O` [SEQ ID NO. 189] (cyclo([4Pal][Trp(7-Cl)][αMeS][Phe(4-CONH2)][Phe(4-CONH2)][Sar][Trp(βS-Me,7-OMe)][X1][Nle][4Pal][Pip(5R-OH)][Trp(7-aza)][NMeE]N)), the IC50 came out at 0.6 nM. Consider `CCCCC[C@@H]1NC(=O)[C@@H]2CC[C@@H](C2)NC(=O)[C@H]([C@@H](C)c2c[nH]c3c(OC)cccc23)NC(=O)CN(C)C(=O)[C@H](Cc2ccc(OC)cc2)NC(=O)[C@H](Cc2ccc(C(N)=O)cc2)NC(=O)[C@](C)(CO)NC(=O)[C@H](Cc2c[nH]c3c(C#N)cccc23)NC(=O)[C@H](Cc2ccncc2)NC(=O)[C@H](CC(N)=O)NC(=O)[C@H]2C[C@H](O)CN2C(=O)[C@H](Cc2c[nH]c3ccccc23)NC(=O)[C@@H]2CNCCN2C(=O)[C@H](Cc2ccncc2)NC1=O` [SEQ ID NO. 200] (cyclo([4Pal][Trp(7-CN)][αMeS][Phe(4-CONH2)]Y(Me)[Sar][Trp(βS-Me,7-OMe)][X1][Ahp(2)][4Pal][Pip(4-aza)]W[dHyp]N)), for which the IC50 was 1 nM.
